What was measured:
[1] = tested on: Staphylococcus aureus; test: Antimicrobial activity against Staphylococcus aureus ATCC 25923 assessed as reduction in bacterial growth incubated for 18 hrs in presence of 4 uM FeCl3 by CLSI protocol based broth microdilution method (reference value: 8 uM); format: functional
[2] = tested on: Staphylococcus aureus; test: Antimicrobial activity against Staphylococcus aureus ATCC 25923 assessed as reduction in bacterial growth incubated for 18 hrs in presence of 150 mM NaCl by CLSI protocol based broth microdilution method (reference value: 8 uM); format: functional
[3] = tested on: Escherichia coli; test: Antimicrobial activity against Escherichia coli ATCC 25922 assessed as reduction in bacterial growth incubated for 18 hrs in presence of 1 mM MgCl2 by CLSI protocol based broth microdilution method (reference value: 8 uM); format: functional
[4] = Acute toxicity in Kunming mouse assessed as swelling in liver at 62 mg/kg, ip by H and E staining based analysis; format: organism-based; settings: in vivo
[5] = tested on: Escherichia coli; test: Antimicrobial activity against Escherichia coli ATCC 25922 assessed as reduction in bacterial growth incubated for 18 hrs in presence of 4.5 mM KCl by CLSI protocol based broth microdilution method (reference value: 8 uM); format: functional
[6] = tested on: Escherichia coli; test: Synergistic antibacterial activity against Escherichia coli ATCC 25922 assessed as fractional inhibitory concentration index incubated for 18 hrs in presence of kanamycin by checker board assay; format: functional
[7] = tested on: Staphylococcus aureus; test: Synergistic antibacterial activity against polymyxin B-resistant Staphylococcus aureus ATCC 25923 assessed as fractional inhibitory concentration index incubated for 18 hrs in presence of polymyxin B by checker board assay; format: functional
[8] = tested on: Staphylococcus aureus; test: Antimicrobial activity against Staphylococcus aureus ATCC 25923 assessed as reduction in bacterial growth incubated for 18 hrs in presence of 150 mM NaCl by CLSI protocol based broth microdilution method (reference value: 4 uM); format: functional
[9] = tested on: Staphylococcus aureus; test: Synergistic antibacterial activity against rifampicin-resistant Staphylococcus aureus ATCC 25923 assessed as fractional inhibitory concentration index incubated for 18 hrs in presence of rifampicin by checker board assay; format: functional
[10] = tested on: Staphylococcus aureus; test: Antimicrobial activity against Staphylococcus aureus ATCC 25923 assessed as reduction in bacterial growth incubated for 18 hrs in presence of 1 mM MgCl2 by CLSI protocol based broth microdilution method (reference value: 4 uM); format: functional
[11] = tested on: Staphylococcus aureus; test: Antimicrobial activity against Staphylococcus aureus ATCC 25923 assessed as reduction in bacterial growth incubated for 18 hrs in presence of 4 uM FeCl3 by CLSI protocol based broth microdilution method (reference value: 4 uM); format: functional

Substance | MIC [1] [µM] | MIC [2] [µM] | MIC [3] [µM] | Activity [4] | MIC [5] [µM] | fractional inhibitory concentration index (FICI) [6] | fractional inhibitory concentration index (FICI) [7] | MIC [8] [µM] | fractional inhibitory concentration index (FICI) [9] | MIC [10] [µM] | MIC [11] [µM]
H-KWKWKRRRFKWKWK-NH2 | 8 | 16 | 8 | Toxic | 8 | 0.3125 | – | – | – | – | –
H-RIRIRRRRFRIRIR-NH2 | – | – | – | – | – | – | 0.3125 | 8 | 0.375 | 8 | 4
